According to patent publication US20060069132A1, “Azolecarboxamide herbicides” (priority 2004, published 2006):

Key:
large crabgrass = experiment: Test B pre-/postemergence herbicide test; format: in vivo, Digitaria sanguinalis
Procedure, shortened: (§1)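 Greenhouse pot assay with simultaneous preemergence (treated seed) and postemergence (2–18 cm seedlings) applications of surfactant-containing, non-phytotoxic solvent formulations. Response scored visually 13–15 days later on a 0–100 scale, 100 meaning complete control.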

[1] = test system: smallflower umbrella sedge; experiment: Test C flooded paddy test; format: in vivo, Cyperus difformis; details: for Plant response rating, Sedge, Umbrella: 500 g ai/ha, visual rating after 12 to 14 days
giant foxtail = experiment: Test B pre-/postemergence herbicide test; format: in vivo, Setaria faberi
Procedure, shortened: as §1

lambsquarters = experiment: Test B pre-/postemergence herbicide test; format: in vivo, Chenopodium album
Procedure, shortened: as §1

barnyardgrass [2] = experiment: Test C flooded paddy test; format: in vivo, Echinochloa crus-galli; details: for Plant response rating, Barnyardgrass: 500 g ai/ha, visual rating after 12 to 14 days
Procedure, shortened: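 Postemergence sprays were applied to plants 2 to 18 cm tall (1- to 4-leaf stage); in the flooded paddy test, barnyardgrass was grown to the 2-leaf stage. After 12 to 14 days in a greenhouse, injury was visually rated against untreated controls on a 0–100 scale (100 = complete control).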

velvetleaf = experiment: Test B pre-/postemergence herbicide test; format: in vivo, Abutilon theophrasti
Procedure, shortened: as §1

blackgrass = experiment: Test B postemergence herbicide test; format: in vivo, Alopecurus myosuroides
Procedure, shortened: (§2)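 Read-out: visual comparison with controls, scored 0 to 100, where 100 means complete control and 0 no effect. Formulated chemicals were applied postemergence to plants 2–18 cm tall (1- to 4-leaf), or to flooded-paddy plants at the 2-leaf stage, then held 13 to 15 days under glass.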

wheat = experiment: Test B postemergence herbicide test; format: in vivo, Triticum aestivum; design: key to Wheat plant response rating: 0 = no effect, 100 = complete control
Procedure, shortened: as §2

[3] = test system: small flower umbrella sedge; experiment: Test B flooded paddy test; format: in vivo, Cyperus difformis; details: 1000 g ai/ha, scale 0 to 100 (0 no effect, 100 complete control)
Procedure, shortened: as §2

ducksalad [4] = experiment: Test C flooded paddy test; format: in vivo, Heteranthera limosa; details: for Plant response rating, Ducksalad: 500 g ai/ha, visual rating after 12 to 14 days
morningglory = experiment: Test B pre-/postemergence herbicide test; format: in vivo, Ipomoea coccinea
Procedure, shortened: (§3)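 Pre: seeds sown, then sprayed. Post: 1–4-leaf plants (2–18 cm) sprayed at the same time. Paddy: flooded, treated at 2-leaf stage. Formulation: non-phytotoxic solvent with surfactant. Greenhouse 13–15 days; visual 0–100 score relative to controls.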

corn = experiment: Test B pre-/postemergence herbicide test; format: in vivo, Zea mays
Procedure, shortened: as §1

Surinam grass = experiment: Test B pre-/postemergence herbicide test; format: in vivo, Urochloa decumbens
Procedure, shortened: as §1

pigweed = experiment: Test B pre-/postemergence herbicide test; format: in vivo, Amaranthus retroflexus; details: for Pigweed plant response rating: postemergence
Procedure, shortened: as §1

wild oat = experiment: Test B postemergence herbicide test; format: in vivo, Avena fatua
Procedure, shortened: as §2

cocklebur = experiment: Test B pre-/postemergence herbicide test; format: in vivo, Xanthium strumarium
Procedure, shortened: as §3

rice [5] = experiment: Test B pre-/postemergence herbicide test; format: in vivo, Oryza sativa; details: preemergence; for Plant response rating, Rice: 500 g ai/ha, visual rating
Procedure, shortened: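 Species tested were Echinochloa crus-galli, Ipomoea coccinea, Xanthium strumarium and Oryza sativa, treated both before emergence and at the 1- to 4-leaf stage; rice and barnyardgrass were also tested under flooding at 2 leaves. Greenhouse incubation lasted 13–15 days before visual 0–100 scoring.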

barnyardgrass [6] = experiment: Test B flooded paddy test; format: in vivo, Echinochloa crus-galli; details: 1000 g ai/ha, scale 0 to 100 (0 no effect, 100 complete control)
Procedure, shortened: as §2

barnyardgrass [7] = experiment: Test B pre-/postemergence herbicide test; format: in vivo, Echinochloa crus-galli; details: for Barnyardgrass plant response rating: postemergence
Procedure, shortened: as §3

ducksalad [8] = experiment: Test B flooded paddy test; format: in vivo, Heteranthera limosa; details: 1000 g ai/ha, scale 0 to 100 (0 no effect, 100 complete control)
Procedure, shortened: as §2

rice [9] = experiment: Test B flooded paddy test; format: in vivo, Oryza sativa; details: 1000 g ai/ha, scale 0 to 100 (0 no effect, 100 complete control)
Procedure, shortened: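 Greenhouse test; postemergence application to plants at 1–4 leaves (2–18 cm); paddy species at 2 leaves; evaluated visually vs controls at 13–15 days; scale 0–100 (100 = complete control).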

rice [10] = experiment: Test C flooded paddy test; format: in vivo, Oryza sativa; details: for Plant response rating, Rice: 500 g ai/ha, visual rating after 12 to 14 days
Procedure, shortened: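 Injury scored visually against controls on a 0 (no effect) to 100 (complete control) scale, 12 to 14 days after treatment in greenhouse. Flooded paddy plants treated at 2-leaf stage; postemergence plants at 1- to 4-leaf stage, 2 to 18 cm tall.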

[11] = 125 g ai/ha; 0 is no effect, 100 is complete control; preemergence
[12] = 125 g ai/ha; visual rating, scale 0 (no effect) to 100 (complete control); postemergence
[13] = 500 g ai/ha; visual rating, 0 = no effect, 100 = complete control; preemergence
[14] = postemergence, 500 g ai/ha; scale 0 to 100, 0 is no effect, 100 is complete control
[15] = 125 g ai/ha, scale 0 to 100 (0 no effect, 100 complete control)
[16] = 250 g ai/ha, scale of 0 to 100, 0 is no effect, 100 is complete control
[17] = scale 0 to 100 (0 no effect, 100 complete control)
[18] = 62 g ai/ha, scale 0 to 100 (0 no effect, 100 complete control)
[19] = 125 g ai/ha, 0 is no effect, 100 is complete control, preemergence
[20] = 125 g ai/ha, visual rating, scale 0 (no effect) to 100 (complete control)
[21] = 500 g ai/ha, visual rating, 0 = no effect, 100 = complete control, preemergence
[22] = 500 g ai/ha, scale 0 to 100, 0 is no effect, 100 is complete control
[23] = 0 = no effect, 100 = complete control
[24] = 125 g ai/ha; 0 = no effect, 100 = complete control; preemergence
[25] = postemergence, 125 g ai/ha; visual rating, scale 0 (no effect) to 100 (complete control)
[26] = postemergence, 500 g ai/ha; visual rating, scale 0 (no effect) to 100 (complete control)
[27] = 125 g ai/ha, 0 = no effect, 100 = complete control, preemergence

CCN1N=C(C(C)(C)C)CC1C(=O)Nc1cc(C(=O)N2CCCCC2)ccc1F (racemic) [Compound 331]
10: Crabgrass, Large plant response rating (large crabgrass; [12]) | Crabgrass, Large plant response rating (large crabgrass; [14]) | Barnyardgrass plant response rating (barnyardgrass [2]; [15]) | Velvetleaf plant response rating (velvetleaf; [12]) | Blackgrass plant response rating (blackgrass; [12]) | Morningglory plant response rating (morningglory; [14]) | Surinam Grass plant response rating (Surinam grass; [12]) | Pigweed plant response rating (pigweed; [20]) | Oat, Wild plant response rating (wild oat; [12]) | Cocklebur plant response rating (cocklebur; [12]) | Barnyardgrass plant response rating (barnyardgrass [7]; [20])
90: Sedge, Umbrella plant response rating [3] | Ducksalad plant response rating (ducksalad [8])
60: Plant response rating (0 to 100 scale), Crabgrass, Large (large crabgrass; [11]) | Lambsquarters plant response rating (lambsquarters; [12]) | Plant response rating, Surinam Grass (Surinam grass; [13]) | Plant response rating (0 to 100 scale), Barnyardgrass (barnyardgrass [7]; [19]) | Rice plant response rating (rice [9])
30: Foxtail, Giant plant response rating (giant foxtail; [14]) | Oat, Wild plant response rating (wild oat; [14]) | Cocklebur plant response rating (cocklebur; [14]) | Plant response rating (0 to 100 scale), Rice (rice [5]; 125 g ai/ha, 0 is no effect, 100 is complete control)
85: Plant response rating, Ducksalad (ducksalad [4]; [17])
20: Sedge, Umbrella plant response rating [1, 15] | Plant response rating (0 to 100 scale), Foxtail, Giant (giant foxtail; [11]) | Plant response rating (0 to 100 scale), Velvetleaf (velvetleaf; [11]) | Velvetleaf plant response rating (velvetleaf; [14]) | Blackgrass plant response rating (blackgrass; [14]) | Wheat plant response rating (wheat; [12]) | Wheat plant response rating (wheat; [14]) | Plant response rating (0 to 100 scale), Corn (corn; [11]) | Surinam Grass plant response rating (Surinam grass; [14]) | Barnyardgrass plant response rating (barnyardgrass [7]; [22])
65: Plant response rating, Sedge, Umbrella [1, 17] | Plant response rating, Barnyardgrass (barnyardgrass [2]; [17]) | Ducksalad plant response rating (ducksalad [4]; [16]) | Plant response rating, Rice (rice [10]; [17])
40: Barnyardgrass plant response rating (barnyardgrass [2]; [16]) | Plant response rating, Corn (corn; [13]) | Plant response rating (0 to 100 scale), Surinam Grass (Surinam grass; [11]) | Plant response rating (0 to 100 scale), Pigweed (pigweed; [19]) | Plant response rating, Rice (rice [5]; [23])
0: Sedge, Umbrella plant response rating ([1]; 62 g ai/ha, scale 0 to 100) | Foxtail, Giant plant response rating (giant foxtail; [12]) | Barnyardgrass plant response rating (barnyardgrass [2]; [18]) | Ducksalad plant response rating (ducksalad [4]; 62 g ai/ha, scale 0 to 100) | Plant response rating (0 to 100 scale), Morningglory (morningglory; [11]) | Morningglory plant response rating (morningglory; [12]) | Plant response rating, Morningglory (morningglory; [13]) | Corn plant response rating (corn; [12]) | Corn plant response rating (corn; [14]) | Plant response rating (0 to 100 scale), Cocklebur (cocklebur; [11]) | Plant response rating, Cocklebur (cocklebur; [13]) | Rice plant response rating (rice [10]; 62 g ai/ha, scale 0 to 100)
15: Rice plant response rating (rice [10]; [15])
70: Lambsquarters plant response rating (lambsquarters; [14]) | Plant response rating, Barnyardgrass (barnyardgrass [7]; [21])
80: Plant response rating, Crabgrass, Large (large crabgrass; [13]) | Plant response rating, Foxtail, Giant (giant foxtail; [13]) | Plant response rating, Velvetleaf (velvetleaf; [13]) | Barnyardgrass plant response rating (barnyardgrass [6])
50: Ducksalad plant response rating (ducksalad [4]; [15]) | Plant response rating, Pigweed (pigweed; [21]) | Pigweed plant response rating (pigweed; [22]) | Rice plant response rating (rice [10]; [16])
100: Plant response rating, Lambsquarters (lambsquarters; [13])
25: Sedge, Umbrella plant response rating [1, 16]

CCc1cn(C(C)(C)C)nc1C(=O)Nc1cc(C(=O)N(C)C)ccn1 [Compound 232]
0: Sedge, Umbrella plant response rating [1, 18] | Foxtail, Giant plant response rating (0 to 100 scale) (giant foxtail; [24]) | Barnyardgrass plant response rating (barnyardgrass [2]; [18]) | Barnyardgrass plant response rating (barnyardgrass [2]; [15]) | Barnyardgrass plant response rating (barnyardgrass [2]; [16]) | Blackgrass plant response rating (blackgrass; [25]) | Blackgrass plant response rating (blackgrass; [26]) | Wheat plant response rating (wheat; [25]) | Wheat plant response rating (wheat; [26]) | Ducksalad plant response rating (ducksalad [4]; [18]) | Ducksalad plant response rating (ducksalad [4]; [15]) | Corn plant response rating (0 to 100 scale) (corn; [24]) | Plant response rating, Corn (corn; [13]) | Surinam Grass plant response rating (0 to 100 scale) (Surinam grass; [24]) | Oat, Wild plant response rating (wild oat; [25]) | Oat, Wild plant response rating (wild oat; [26]) | Cocklebur plant response rating (0 to 100 scale) (cocklebur; [24]) | Plant response rating, Cocklebur (cocklebur; [13]) | Rice plant response rating (rice [10]; [18])
70: Morningglory plant response rating (morningglory; [26])
80: Lambsquarters plant response rating (0 to 100 scale) (lambsquarters; [24]) | Plant response rating, Ducksalad (ducksalad [4]; [17]) | Ducksalad plant response rating (ducksalad [8])
20: Crabgrass, Large plant response rating (large crabgrass; [26]) | Velvetleaf plant response rating (0 to 100 scale) (velvetleaf; [24]) | Plant response rating, Morningglory (morningglory; [13]) | Corn plant response rating (corn; [26]) | Surinam Grass plant response rating (Surinam grass; [26]) | Barnyardgrass plant response rating (0 to 100 scale) (barnyardgrass [7]; [27]) | Rice plant response rating (rice [10]; [15])
40: Plant response rating, Velvetleaf (velvetleaf; [13]) | Velvetleaf plant response rating (velvetleaf; [26]) | Pigweed plant response rating (pigweed; 500 g ai/ha, visual rating, scale 0 (no effect) to 100 (complete control)) | Barnyardgrass plant response rating (barnyardgrass [6])
60: Crabgrass, Large plant response rating (0 to 100 scale) (large crabgrass; [24]) | Lambsquarters plant response rating (lambsquarters; [26]) | Plant response rating, Barnyardgrass (barnyardgrass [7]; [21]) | Plant response rating, Rice (rice [10]; [17])
35: Sedge, Umbrella plant response rating [1, 15] | Rice plant response rating (rice [10]; [16])
50: Lambsquarters plant response rating (lambsquarters; [25]) | Plant response rating, Rice (rice [5]; [23]) | Rice plant response rating (rice [9])
15: Plant response rating, Barnyardgrass (barnyardgrass [2]; [17])
30: Plant response rating, Foxtail, Giant (giant foxtail; [13]) | Foxtail, Giant plant response rating (giant foxtail; [26]) | Velvetleaf plant response rating (velvetleaf; [25]) | Ducksalad plant response rating (ducksalad [4]; [16]) | Morningglory plant response rating (morningglory; [25]) | Plant response rating, Surinam Grass (Surinam grass; [13]) | Cocklebur plant response rating (cocklebur; [26])
100: Plant response rating, Crabgrass, Large (large crabgrass; [13])
55: Sedge, Umbrella plant response rating [1, 16]
85: Plant response rating, Sedge, Umbrella [1, 17]
90: Plant response rating, Lambsquarters (lambsquarters; [13]) | Sedge, Umbrella plant response rating [3] | Pigweed plant response rating (0 to 100 scale) (pigweed; [27]) | Plant response rating, Pigweed (pigweed; [21])
10: Crabgrass, Large plant response rating (large crabgrass; [25]) | Foxtail, Giant plant response rating (giant foxtail; [25]) | Morningglory plant response rating (0 to 100 scale) (morningglory; [24]) | Corn plant response rating (corn; [25]) | Surinam Grass plant response rating (Surinam grass; [25]) | Cocklebur plant response rating (cocklebur; [25]) | Rice plant response rating (0 to 100 scale) (rice [5]; 125 g ai/ha, 0 = no effect, 100 = complete control)
